Reference: ChEMBL document CHEMBL5724806, “Unraveling interindividual differences and functional consequences of gut microbial metabolism of immunosuppressants” (2024)

Experiments:
Assay type in all cases: ADME
[1] = The drug is tested on Gemella haemolysans strain: DSM107751 for biotransformation under microaerobic condition. The drug concentrations were measured over 6 timepoints collected between 0 and 12 hours of incubation by liquid-chromatography-coupled mass spectrometry (LC–MS); design: dose 5 uM, timepoint 0, 1.5, 3, 6, 9, 12 hours; conditions: 5 µM
[2] = (§1) The drug is tested on the gut metagenome community of T-04 with ENA study accession number: PRJEB31790 for biotransformation under anaerobic condition. The drug concentrations were measured over 7 timepoints collected between 0 and 12 hours of incubation by liquid-chromatography-coupled mass spectrometry (LC–MS); design: dose 5 uM, timepoint 0, 0.75, 1.5, 3, 6, 9, 12 hours; conditions: 5 µM
[3] = as §1, with “A-08” for “T-04”; design: dose 5 uM, timepoint 0, 0.75, 1.5, 3, 6, 9, 12 hours; conditions: 5 µM
[4] = as §1, with “P-04” for “T-04”; design: dose 5 uM, timepoint 0, 0.75, 1.5, 3, 6, 9, 12 hours; conditions: 5 µM
[5] = as §1, with “P-01” for “T-04”, “microaerobic” for “anaerobic”; design: dose 5 uM, timepoint 0, 0.75, 1.5, 3, 6, 9, 12 hours; conditions: 5 µM
[6] = The drug is tested on Actinomyces naeslundi strain: DSM43013 for biotransformation under microaerobic condition. The drug concentrations were measured over 6 timepoints collected between 0 and 12 hours of incubation by liquid-chromatography-coupled mass spectrometry (LC–MS); design: dose 5 uM, timepoint 0, 1.5, 3, 6, 9, 12 hours; conditions: actinomyces naeslundii, 5 µM
[7] = as §1, with “P-03” for “T-04”, “microaerobic” for “anaerobic”; design: dose 5 uM, timepoint 0, 0.75, 1.5, 3, 6, 9, 12 hours; conditions: 5 µM
[8] = as §1, with “microaerobic” for “anaerobic”; design: dose 5 uM, timepoint 0, 0.75, 1.5, 3, 6, 9, 12 hours; conditions: 5 µM
[9] = The drug is tested on Bifidobacterium longum strain: DSM20088 for biotransformation under anaerobic condition. The drug concentrations were measured over 6 timepoints collected between 0 and 12 hours of incubation by liquid-chromatography-coupled mass spectrometry (LC–MS); design: dose 5 uM, timepoint 0, 1.5, 3, 6, 9, 12 hours; conditions: 5 µM
[10] = The drug is tested on Streptococcus salivarius strain: DSM20560 for biotransformation under anaerobic condition. The drug concentrations were measured over 6 timepoints collected between 0 and 12 hours of incubation by liquid-chromatography-coupled mass spectrometry (LC–MS); design: dose 5 uM, timepoint 0, 1.5, 3, 6, 9, 12 hours; conditions: 5 µM
[11] = The drug is tested on Bifidobacterium adolescentis strain: DSM20083 for biotransformation under anaerobic condition. The drug concentrations were measured over 6 timepoints collected between 0 and 12 hours of incubation by liquid-chromatography-coupled mass spectrometry (LC–MS); design: dose 5 uM, timepoint 0, 1.5, 3, 6, 9, 12 hours; conditions: 5 µM
[12] = The drug is tested on Capnocytophaga ochracea strain: DSM7271 for biotransformation under microaerobic condition. The drug concentrations were measured over 6 timepoints collected between 0 and 12 hours of incubation by liquid-chromatography-coupled mass spectrometry (LC–MS); design: dose 5 uM, timepoint 0, 1.5, 3, 6, 9, 12 hours; conditions: 5 µM
[13] = The drug is tested on Lactobacillus paracasei strain: ATCC27092 for biotransformation under microaerobic condition. The drug concentrations were measured over 6 timepoints collected between 0 and 12 hours of incubation by liquid-chromatography-coupled mass spectrometry (LC–MS); design: dose 5 uM, timepoint 0, 1.5, 3, 6, 9, 12 hours; conditions: lacticaseibacillus paracasei, 5 µM
[14] = The drug is tested on Streptococcus salivarius strain: DSM20560 for biotransformation under microaerobic condition. The drug concentrations were measured over 6 timepoints collected between 0 and 12 hours of incubation by liquid-chromatography-coupled mass spectrometry (LC–MS); design: dose 5 uM, timepoint 0, 1.5, 3, 6, 9, 12 hours; conditions: 5 µM
[15] = as §1, with “A-04” for “T-04”, “microaerobic” for “anaerobic”; design: dose 5 uM, timepoint 0, 0.75, 1.5, 3, 6, 9, 12 hours; conditions: 5 µM
[16] = The drug is tested on Eubacterium eligens strain: DSM3376 for biotransformation under anaerobic condition. The drug concentrations were measured over 6 timepoints collected between 0 and 12 hours of incubation by liquid-chromatography-coupled mass spectrometry (LC–MS); design: dose 5 uM, timepoint 0, 1.5, 3, 6, 9, 12 hours; conditions: lachnospira eligens, 5 µM
[17] = The drug is tested on Prevotella copri strain: DSM18205 for biotransformation under anaerobic condition. The drug concentrations were measured over 6 timepoints collected between 0 and 12 hours of incubation by liquid-chromatography-coupled mass spectrometry (LC–MS); design: dose 5 uM, timepoint 0, 1.5, 3, 6, 9, 12 hours; conditions: segatella copri, 5 µM
[18] = The drug is tested on Bacteroides stercoris strain: HM 1036 for biotransformation under anaerobic condition. The drug concentrations were measured over 6 timepoints collected between 0 and 12 hours of incubation by liquid-chromatography-coupled mass spectrometry (LC–MS); design: dose 5 uM, timepoint 0, 1.5, 3, 6, 9, 12 hours; conditions: 5 µM
[19] = as §1, with “T-01” for “T-04”; design: dose 5 uM, timepoint 0, 0.75, 1.5, 3, 6, 9, 12 hours; conditions: 5 µM
[20] = as §1, with “A-05” for “T-04”, “microaerobic” for “anaerobic”; design: dose 5 uM, timepoint 0, 0.75, 1.5, 3, 6, 9, 12 hours; conditions: 5 µM
[21] = as §1, with “A-09” for “T-04”, “microaerobic” for “anaerobic”; design: dose 5 uM, timepoint 0, 0.75, 1.5, 3, 6, 9, 12 hours; conditions: 5 µM
[22] = as §1, with “A-06” for “T-04”; design: dose 5 uM, timepoint 0, 0.75, 1.5, 3, 6, 9, 12 hours; conditions: 5 µM
[23] = as §1, with “T-05” for “T-04”, “microaerobic” for “anaerobic”; design: dose 5 uM, timepoint 0, 0.75, 1.5, 3, 6, 9, 12 hours; conditions: 5 µM
[24] = The drug is tested on Bacteroides fragilis strain: DSM2151 for biotransformation under anaerobic condition. The drug concentrations were measured over 6 timepoints collected between 0 and 12 hours of incubation by liquid-chromatography-coupled mass spectrometry (LC–MS); design: dose 5 uM, timepoint 0, 1.5, 3, 6, 9, 12 hours; conditions: 5 µM
[25] = as §1, with “T-02” for “T-04”, “microaerobic” for “anaerobic”; design: dose 5 uM, timepoint 0, 0.75, 1.5, 3, 6, 9, 12 hours; conditions: 5 µM
[26] = as §1, with “P-02” for “T-04”, “microaerobic” for “anaerobic”; design: dose 5 uM, timepoint 0, 0.75, 1.5, 3, 6, 9, 12 hours; conditions: 5 µM
[27] = as §1, with “T-01” for “T-04”, “microaerobic” for “anaerobic”; design: dose 5 uM, timepoint 0, 0.75, 1.5, 3, 6, 9, 12 hours; conditions: 5 µM
[28] = as §1, with “A-07” for “T-04”, “microaerobic” for “anaerobic”; design: dose 5 uM, timepoint 0, 0.75, 1.5, 3, 6, 9, 12 hours; conditions: 5 µM
[29] = The drug is tested on Eubacterium rectale strain: DSM17629 for biotransformation under anaerobic condition. The drug concentrations were measured over 6 timepoints collected between 0 and 12 hours of incubation by liquid-chromatography-coupled mass spectrometry (LC–MS); design: dose 5 uM, timepoint 0, 1.5, 3, 6, 9, 12 hours; conditions: agathobacter rectalis, 5 µM
[30] = The drug is tested on Ruminococcus gnavus strain: ATCC29149 for biotransformation under anaerobic condition. The drug concentrations were measured over 6 timepoints collected between 0 and 12 hours of incubation by liquid-chromatography-coupled mass spectrometry (LC–MS); design: dose 5 uM, timepoint 0, 1.5, 3, 6, 9, 12 hours; conditions: mediterraneibacter gnavus, 5 µM
[31] = as §1, with “T-05” for “T-04”; design: dose 5 uM, timepoint 0, 0.75, 1.5, 3, 6, 9, 12 hours; conditions: 5 µM

Row | Bacterial Biotransformation [2] | Bacterial Biotransformation [3] | Bacterial Biotransformation [4] | Bacterial Biotransformation [5] | Bacterial Biotransformation [6] | Bacterial Biotransformation [7] | Bacterial Biotransformation [8] | Bacterial Biotransformation [9] | Bacterial Biotransformation [10] | Bacterial Biotransformation [11] | Bacterial Biotransformation [12] | Bacterial Biotransformation [13] | Bacterial Biotransformation [14] | Bacterial Biotransformation [15] | Bacterial Biotransformation [16] | Bacterial Biotransformation [17] | Bacterial Biotransformation [18] | Bacterial Biotransformation [19] | Bacterial Biotransformation [20] | SMILES | Bacterial Biotransformation [1] | further results
1 | Compound NOT metabolized | Compound metabolized | Compound metabolized | Compound metabolized | Compound NOT metabolized | Compound metabolized | Compound NOT metabolized | Compound NOT metabolized | Compound NOT metabolized | Compound NOT metabolized | Compound NOT metabolized | Compound NOT metabolized | Compound NOT metabolized | Compound metabolized | Compound NOT metabolized | Compound NOT metabolized | Compound NOT metabolized | Compound NOT metabolized | Compound metabolized | C[C@]12C=CC(=O)C=C1CC[C@@H]1[C@@H]2[C@@H](O)C[C@@]2(C)[C@H]1CC[C@]2(O)C(=O)CO [PREDNISOLONE] | Compound NOT metabolized | Bacterial Biotransformation [21]: Compound metabolized; Bacterial Biotransformation [22]: Compound metabolized; Bacterial Biotransformation [23]: Compound NOT metabolized; Bacterial Biotransformation [24]: Compound NOT metabolized; Bacterial Biotransformation [25]: Compound metabolized; Bacterial Biotransformation [26]: Compound metabolized; Bacterial Biotransformation [27]: Compound NOT metabolized; Bacterial Biotransformation [28]: Compound metabolized; Bacterial Biotransformation [29]: Compound NOT metabolized; Bacterial Biotransformation [30]: Compound metabolized; Bacterial Biotransformation [31]: Compound NOT metabolized
2 | Compound NOT metabolized | Compound metabolized | Compound metabolized | Compound metabolized | Compound NOT metabolized | Compound metabolized | Compound NOT metabolized | Compound NOT metabolized | Compound NOT metabolized | Compound NOT metabolized | Compound NOT metabolized | Compound NOT metabolized | Compound NOT metabolized | Compound metabolized | Compound NOT metabolized | Compound NOT metabolized | Compound NOT metabolized | Compound metabolized | Compound metabolized | C[C@]12C=CC(=O)C=C1CC[C@@H]1[C@@H]2C(=O)C[C@@]2(C)[C@H]1CC[C@]2(O)C(=O)CO [PREDNISONE] | Compound NOT metabolized | Bacterial Biotransformation [21]: Compound metabolized; Bacterial Biotransformation [22]: Compound metabolized; Bacterial Biotransformation [23]: Compound metabolized; Bacterial Biotransformation [24]: Compound NOT metabolized; Bacterial Biotransformation [25]: Compound metabolized; Bacterial Biotransformation [26]: Compound metabolized; Bacterial Biotransformation [27]: Compound metabolized; Bacterial Biotransformation [28]: Compound metabolized; Bacterial Biotransformation [29]: Compound NOT metabolized; Bacterial Biotransformation [30]: Compound metabolized; Bacterial Biotransformation [31]: Compound metabolized
3 | Compound NOT metabolized | Compound NOT metabolized | Compound NOT metabolized | Compound metabolized | Compound NOT metabolized | Compound NOT metabolized | Compound NOT metabolized | Compound NOT metabolized | Compound NOT metabolized | Compound NOT metabolized | Compound NOT metabolized | Compound NOT metabolized | Compound NOT metabolized | Compound metabolized | Compound metabolized | Compound NOT metabolized | Compound NOT metabolized | Compound NOT metabolized | Compound NOT metabolized | CNC(=C[N+](=O)[O-])NCCSCc1ccc(CN(C)C)o1 [RANITIDINE] | Compound NOT metabolized | Bacterial Biotransformation [21]: Compound metabolized; Bacterial Biotransformation [22]: Compound metabolized; Bacterial Biotransformation [23]: Compound NOT metabolized; Bacterial Biotransformation [24]: Compound NOT metabolized; Bacterial Biotransformation [25]: Compound NOT metabolized; Bacterial Biotransformation [26]: Compound NOT metabolized; Bacterial Biotransformation [27]: Compound NOT metabolized; Bacterial Biotransformation [28]: Compound metabolized; Bacterial Biotransformation [29]: Compound NOT metabolized; Bacterial Biotransformation [30]: Compound NOT metabolized; Bacterial Biotransformation [31]: Compound NOT metabolized
